Assay [1] addresses T1, Mitogen-activated protein kinase 14 (Homo sapiens, UniProt Q16539). The experiment in a line: Binding affinity to unphosphorylated p38alpha assessed as change in melting temperature.
In assay [2] the target is T1, Mitogen-activated protein kinase 14. The experiment in a line: Binding affinity to phosphorylated p38alpha assessed as change in melting temperature.
Assay [3] shares this target. The experiment in a line: Binding affinity to unphosphorylated p38alpha by fluoroprobe binding assay.
Assay [4] shares this target. The experiment in a line: Binding affinity to phosphorylated p38alpha by fluoroprobe binding assay.
Assay [5] has the same target. The assay is described as follows: Inhibition of p38alpha by fluoroprobe binding assay.
A further assay has as its target T2, Ephrin type-B receptor 2 (Homo sapiens, UniProt P29323).
T2 sequence (P29323 whole entry): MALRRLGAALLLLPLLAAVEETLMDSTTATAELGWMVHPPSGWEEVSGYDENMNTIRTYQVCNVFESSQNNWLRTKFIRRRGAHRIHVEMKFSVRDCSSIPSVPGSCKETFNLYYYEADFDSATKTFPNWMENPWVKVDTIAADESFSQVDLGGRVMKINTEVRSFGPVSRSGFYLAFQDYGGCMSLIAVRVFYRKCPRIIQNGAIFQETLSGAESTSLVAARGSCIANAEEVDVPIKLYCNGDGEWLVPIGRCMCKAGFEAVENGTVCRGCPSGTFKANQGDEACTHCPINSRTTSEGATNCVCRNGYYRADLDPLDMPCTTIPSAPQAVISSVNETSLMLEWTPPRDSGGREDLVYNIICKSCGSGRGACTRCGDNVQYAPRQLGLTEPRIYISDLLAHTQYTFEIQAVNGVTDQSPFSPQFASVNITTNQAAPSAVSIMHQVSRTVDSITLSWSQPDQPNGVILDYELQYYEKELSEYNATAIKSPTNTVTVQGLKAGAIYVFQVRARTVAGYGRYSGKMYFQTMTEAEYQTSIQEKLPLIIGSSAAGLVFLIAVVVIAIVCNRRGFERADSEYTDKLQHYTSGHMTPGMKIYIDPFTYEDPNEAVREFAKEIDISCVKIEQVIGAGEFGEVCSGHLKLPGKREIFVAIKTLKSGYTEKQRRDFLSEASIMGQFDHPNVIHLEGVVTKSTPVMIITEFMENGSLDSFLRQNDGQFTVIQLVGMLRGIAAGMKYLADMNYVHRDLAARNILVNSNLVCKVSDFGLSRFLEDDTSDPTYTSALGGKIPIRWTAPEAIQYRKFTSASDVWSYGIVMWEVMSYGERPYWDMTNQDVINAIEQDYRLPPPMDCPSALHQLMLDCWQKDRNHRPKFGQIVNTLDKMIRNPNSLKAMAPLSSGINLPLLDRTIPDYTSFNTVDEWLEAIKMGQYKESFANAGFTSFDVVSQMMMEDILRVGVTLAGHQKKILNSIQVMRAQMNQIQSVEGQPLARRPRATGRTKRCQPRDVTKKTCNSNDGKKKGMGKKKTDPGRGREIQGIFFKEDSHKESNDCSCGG
The assay is described as follows: Inhibition of EPHB2.

Assay [6] concerns the target Serine/threonine-protein kinase B-raf (Homo sapiens, UniProt P15056). The assay is described as follows: Inhibition of BRAF.
The target in assay [7] is T1, Mitogen-activated protein kinase 14. The assay is described as follows: Inhibition of p38alpha autophosphorylation.

SMILES strings stand for the structures.

T1 sequence (Q16539 whole entry): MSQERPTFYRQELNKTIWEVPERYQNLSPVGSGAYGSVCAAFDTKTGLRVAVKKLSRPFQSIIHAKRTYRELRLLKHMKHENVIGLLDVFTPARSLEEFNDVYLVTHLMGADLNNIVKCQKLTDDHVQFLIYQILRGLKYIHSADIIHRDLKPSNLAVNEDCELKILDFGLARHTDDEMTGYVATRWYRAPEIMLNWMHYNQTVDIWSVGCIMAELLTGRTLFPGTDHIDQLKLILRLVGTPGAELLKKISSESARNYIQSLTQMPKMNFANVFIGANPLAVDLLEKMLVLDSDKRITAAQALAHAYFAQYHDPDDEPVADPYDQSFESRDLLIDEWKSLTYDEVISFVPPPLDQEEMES
Chain of Serine/threonine-protein kinase B-raf (P15056 whole entry): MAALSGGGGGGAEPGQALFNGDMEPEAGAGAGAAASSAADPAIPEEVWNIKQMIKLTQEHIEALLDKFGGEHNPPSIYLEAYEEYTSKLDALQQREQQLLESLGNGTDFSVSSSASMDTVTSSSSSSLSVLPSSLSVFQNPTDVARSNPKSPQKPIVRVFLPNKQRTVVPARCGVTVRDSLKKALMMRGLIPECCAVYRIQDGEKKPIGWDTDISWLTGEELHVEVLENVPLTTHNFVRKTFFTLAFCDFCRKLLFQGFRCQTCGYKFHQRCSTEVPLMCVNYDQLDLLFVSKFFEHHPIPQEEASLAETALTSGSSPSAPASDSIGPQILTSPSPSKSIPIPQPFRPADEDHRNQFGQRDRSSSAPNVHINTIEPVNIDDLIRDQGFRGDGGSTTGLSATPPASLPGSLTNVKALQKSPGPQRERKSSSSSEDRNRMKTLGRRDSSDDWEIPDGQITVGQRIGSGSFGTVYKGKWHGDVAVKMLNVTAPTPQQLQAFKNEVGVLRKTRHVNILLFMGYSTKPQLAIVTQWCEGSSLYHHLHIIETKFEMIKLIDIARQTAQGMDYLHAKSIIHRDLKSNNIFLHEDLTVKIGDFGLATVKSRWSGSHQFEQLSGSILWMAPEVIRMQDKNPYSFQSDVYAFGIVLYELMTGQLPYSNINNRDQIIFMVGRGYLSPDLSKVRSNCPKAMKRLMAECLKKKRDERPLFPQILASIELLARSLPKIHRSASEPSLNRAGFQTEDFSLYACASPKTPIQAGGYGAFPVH

For `NC(=O)Cc1cccc(-n2nc(-c3ccsc3)cc2NC(=O)Nc2cccc(Cl)c2Cl)c1`, the ΔTm in assay [1] is 11.6 °C; in assay [2], 9.3 °C. Further, the half-maximal inhibitory concentration (IC50) in assay [3] was found to be 15 nM; in assay [4], 28 nM.

As for `NC(=O)Cc1cccc(-n2nc(C3CCCC3)cc2NC(=O)Nc2cccc(Cl)c2Cl)c1`, the thermal shift (ΔTm) in assay [1] worked out at 12.2 °C. The IC50 in assay [4] turned out to be 10 nM.

With `CC(C)(C)c1cc(NC(=O)Nc2cccc3ccccc23)n(-c2cccc(CC(N)=O)c2)n1`, the ΔTm was 9.1 °C in assay [1] and 8.6 °C in assay [2].

In turn, `CC(C)(C)c1cc(NC(=O)Nc2cccc(Cl)c2Cl)n(-c2ccc(CC(=O)N3CCS(=O)(=O)CC3)cc2)n1` gave an IC50 in assay [5] of 7 nM.

As for `NC(=O)Cc1cccc(-n2nc(-c3ccccc3F)cc2NC(=O)Nc2cccc(Cl)c2Cl)c1`, the shift in melting temperature (ΔTm) in assay [1] turned out to be 8.8 °C; in assay [2], 7.1 °C. Besides, the results for the IC50 in assay [3] and in assay [4] were 25 nM and 40 nM, respectively.

On to `CC(C)(C)c1cc(NC(=O)Nc2cccc3ccccc23)n(-c2cccc(C(=O)N3C(=O)OC[C@@H]3c3ccccc3)c2)n1`, for which the half-maximal inhibitory concentration (IC50) in assay [5] was above 10000 nM.

With `CC(C)(C)c1cc(NC(=O)Nc2cccc(Cl)c2Cl)n(-c2cccc(CC(N)=O)c2)n1`, the IC50 on Ephrin type-B receptor 2 is 82 nM; in assay [6], 17 nM. Moreover, the ΔTm was 12.8 °C in assay [1] and 9.1 °C in assay [2].

For the compound `NC(=O)Cc1cccc(-n2nc(-c3ccccc3)cc2NC(=O)Nc2cccc(Cl)c2Cl)c1`, the figures for the thermal shift (ΔTm) in assay [1] and in assay [2] were 8 °C and 5.4 °C, respectively. Also, the values for the 50% inhibitory concentration (IC50) in assay [3] and in assay [4] were 119 nM and 79 nM, respectively.

Turning to `NC(=O)Cc1cccc(-n2nc(-c3cccs3)cc2NC(=O)Nc2cccc(Cl)c2Cl)c1`, the results for the IC50 (at Ephrin type-B receptor 2; in assay [4]; in assay [7]) were above 50000 nM, 66 nM and above 5 µM, respectively. Further, the values for the ΔTm in assay [1] and in assay [2] were 11.2 °C and 8.5 °C, respectively.

Values taken from ChEMBL document CHEMBL1268872 (Bioorg Med Chem Lett, 2010).
